Data taken from ChEMBL document CHEMBL2380247, “Synthesis and biological evaluation of novel aliphatic amido-quaternary ammonium salts for anticancer chemotherapy: part II” (2013).
The source made the active and inactive calls. The calls are words filed in the database; no cut-off is given here.

Key:
NCI-H23 [1] = assay: Antiproliferative activity against human NCI-H23 cells by SRB assay; type: functional
ACHN [2] = assay: Antiproliferative activity against human ACHN cells by SRB assay; type: functional
[3] = molecular target: Rho-related GTP-binding protein RhoB (Homo sapiens) (UniProt P62745); assay: Transactivation of RhoB in human HeLa cells by luciferase reporter assay; type: cell-based
PC-3 [4] = assay: Antiproliferative activity against human PC3 cells by SRB assay; type: functional
MDA-MB-231 [5] = assay: Antiproliferative activity against human MDA-MB-231 cells by SRB assay; type: functional
NUGC-3 [6] = assay: Antiproliferative activity against human NUGC3 cells by SRB assay; type: functional
ACHN [7] = assay: Antiproliferative activity against human ACHN cells at 1 uM by SRB assay; type: functional
HCT-15 [8] = assay: Antiproliferative activity against human HCT15 cells at 3 uM by SRB assay; type: functional
HCT-15 [9] = assay: Antiproliferative activity against human HCT15 cells at 0.1 uM by SRB assay; type: functional
HCT-15 [10] = assay: Antiproliferative activity against human HCT15 cells at 1 uM by SRB assay; type: functional
MDA-MB-231 [11] = assay: Antiproliferative activity against human MDA-MB-231 cells at 0.1 uM by SRB assay; type: functional
NCI-H23 [12] = assay: Antiproliferative activity against human NCI-H23 cells at 1 uM by SRB assay; type: functional
NUGC-3 [13] = assay: Antiproliferative activity against human NUGC3 cells at 3 uM by SRB assay; type: functional
MDA-MB-231 [14] = assay: Antiproliferative activity against human MDA-MB-231 cells at 3 uM by SRB assay; type: functional
PC-3 [15] = assay: Antiproliferative activity against human PC3 cells at 1 uM by SRB assay; type: functional
ACHN [16] = assay: Antiproliferative activity against human ACHN cells at 0.1 uM by SRB assay; type: functional
HCT-15 [17] = assay: Antiproliferative activity against human HCT15 cells at 10 uM by SRB assay; type: functional
PC-3 [18] = assay: Antiproliferative activity against human PC3 cells at 10 uM by SRB assay; type: functional
ACHN [19] = assay: Antiproliferative activity against human ACHN cells at 10 uM by SRB assay; type: functional
NUGC-3 [20] = assay: Antiproliferative activity against human NUGC3 cells at 10 uM by SRB assay; type: functional
HCT-15 [21] = assay: Antiproliferative activity against human HCT15 cells by SRB assay; type: functional
PC-3 [22] = assay: Antiproliferative activity against human PC3 cells at 0.1 uM by SRB assay; type: functional
MDA-MB-231 [23] = assay: Antiproliferative activity against human MDA-MB-231 cells at 0.3 uM by SRB assay; type: functional
PC-3 [24] = assay: Antiproliferative activity against human PC3 cells at 3 uM by SRB assay; type: functional
NUGC-3 [25] = assay: Antiproliferative activity against human NUGC3 cells at 0.1 uM by SRB assay; type: functional
MDA-MB-231 [26] = assay: Antiproliferative activity against human MDA-MB-231 cells at 10 uM by SRB assay; type: functional
NCI-H23 [27] = assay: Antiproliferative activity against human NCI-H23 cells at 10 uM by SRB assay; type: functional
HCT-15 [28] = assay: Antiproliferative activity against human HCT15 cells at 0.3 uM by SRB assay; type: functional
MDA-MB-231 [29] = assay: Antiproliferative activity against human MDA-MB-231 cells at 1 uM by SRB assay; type: functional
NUGC-3 [30] = assay: Antiproliferative activity against human NUGC3 cells at 1 uM by SRB assay; type: functional
ACHN [31] = assay: Antiproliferative activity against human ACHN cells at 0.3 uM by SRB assay; type: functional
NCI-H23 [32] = assay: Antiproliferative activity against human NCI-H23 cells at 3 uM by SRB assay; type: functional
NCI-H23 [33] = assay: Antiproliferative activity against human NCI-H23 cells at 0.3 uM by SRB assay; type: functional
NUGC-3 [34] = assay: Antiproliferative activity against human NUGC3 cells at 0.3 uM by SRB assay; type: functional
PC-3 [35] = assay: Antiproliferative activity against human PC3 cells at 0.3 uM by SRB assay; type: functional
ACHN [36] = assay: Antiproliferative activity against human ACHN cells at 3 uM by SRB assay; type: functional
NCI-H23 [37] = assay: Antiproliferative activity against human NCI-H23 cells at 0.1 uM by SRB assay; type: functional

Chain of Rho-related GTP-binding protein RhoB (Homo sapiens) (P62745 whole entry): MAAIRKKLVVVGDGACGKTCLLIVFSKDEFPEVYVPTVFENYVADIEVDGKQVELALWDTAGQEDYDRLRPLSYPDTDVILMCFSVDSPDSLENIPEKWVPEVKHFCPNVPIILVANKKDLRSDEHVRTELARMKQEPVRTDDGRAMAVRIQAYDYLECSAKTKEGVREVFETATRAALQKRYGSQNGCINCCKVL

Structure (SMILES) | GI50 (NCI-H23 [1]) [nM] | GI50 (ACHN [2]) [nM] | GI50 (PC-3 [4]) [nM] | GI50 (MDA-MB-231 [5]) [nM] | GI50 (NUGC-3 [6]) [nM] | growth, % of control at 1 µM (ACHN [7]) [%] | growth, % of control at 3 µM (HCT-15 [8]) [%] | growth, % of control at 0.1 µM (HCT-15 [9]) [%] | growth, % of control at 1 µM (HCT-15 [10]) [%] | growth, % of control at 0.1 µM (MDA-MB-231 [11]) [%] | growth, % of control at 1 µM (NCI-H23 [12]) [%] | growth, % of control at 3 µM (NUGC-3 [13]) [%] | growth, % of control at 3 µM (MDA-MB-231 [14]) [%] | growth, % of control at 1 µM (PC-3 [15]) [%] | growth, % of control at 0.1 µM (ACHN [16]) [%] | growth, % of control at 10 µM (HCT-15 [17]) [%] | growth, % of control at 10 µM (PC-3 [18]) [%] | growth, % of control at 10 µM (ACHN [19]) [%] | growth, % of control at 10 µM (NUGC-3 [20]) [%] | GI50 (HCT-15 [21]) [nM] | also measured
C=CC[N+]1(CC)CCN(C(=O)CCCCCCCCCCCCCCC)CC1 | 880 | 500 | 370 | 680 | 270 | – | – | – | – | – | – | – | – | – | – | – | – | – | – | – | Activity [3]: Active
CCCCCCCCCCCCCC(=O)N(C)CC[N+](C)(C)C | 920 | 260 | 410 | 800 | 220 | 34.4 | 53.1 | 91 | 82.4 | 98.5 | 79.7 | -3.9 | 26.6 | 38.4 | 84.4 | 19.2 | -21.7 | -15.9 | -11.9 | 1470 | Activity [3]: Active; growth, % of control at 0.1 µM (PC-3 [22]): 96.6%; growth, % of control at 0.3 µM (MDA-MB-231 [23]): 94.7%; growth, % of control at 3 µM (PC-3 [24]): -4.8%; growth, % of control at 0.1 µM (NUGC-3 [25]): 100%; growth, % of control at 10 µM (MDA-MB-231 [26]): 5.2%; growth, % of control at 10 µM (NCI-H23 [27]): 4.1%; growth, % of control at 0.3 µM (HCT-15 [28]): 90.4%; growth, % of control at 1 µM (MDA-MB-231 [29]): 74.2%; growth, % of control at 1 µM (NUGC-3 [30]): 22.5%; growth, % of control at 0.3 µM (ACHN [31]): 73.3%; growth, % of control at 3 µM (NCI-H23 [32]): 36.1%; growth, % of control at 0.3 µM (NCI-H23 [33]): 80.1%; growth, % of control at 0.3 µM (NUGC-3 [34]): 70.9%; growth, % of control at 0.3 µM (PC-3 [35]): 96.4%; growth, % of control at 3 µM (ACHN [36]): 9.6%; growth, % of control at 0.1 µM (NCI-H23 [37]): 99.8%
CCCCCCCCCCCCCCCC(=O)NCC(C)(C)C[N+](C)(C)CC | 1340 | 2600 | 440 | 1540 | 430 | 87.4 | 85.2 | 107 | 99.5 | 94.4 | 85.6 | 13.8 | 46.6 | 38.5 | 93.7 | 57 | -11.9 | 34.5 | 1.32 | > 10000 | Activity [3]: Active; growth, % of control at 0.1 µM (PC-3 [22]): 103%; growth, % of control at 0.3 µM (MDA-MB-231 [23]): 99.8%; growth, % of control at 3 µM (PC-3 [24]): 4.52%; growth, % of control at 0.1 µM (NUGC-3 [25]): 91.8%; growth, % of control at 10 µM (MDA-MB-231 [26]): 18.4%; growth, % of control at 10 µM (NCI-H23 [27]): 3.85%; growth, % of control at 0.3 µM (HCT-15 [28]): 103%; growth, % of control at 1 µM (MDA-MB-231 [29]): 82.7%; growth, % of control at 1 µM (NUGC-3 [30]): 38.1%; growth, % of control at 0.3 µM (ACHN [31]): 92.4%; growth, % of control at 3 µM (NCI-H23 [32]): 43.1%; growth, % of control at 0.3 µM (NCI-H23 [33]): 101%; growth, % of control at 0.3 µM (NUGC-3 [34]): 90.9%; growth, % of control at 0.3 µM (PC-3 [35]): 94.2%; growth, % of control at 3 µM (ACHN [36]): 58.9%; growth, % of control at 0.1 µM (NCI-H23 [37]): 108%
C=CC[N+](C)(C)CC(C)(C)CNC(=O)CCCCCCCCCCCCCCCCC | 900 | 1750 | 470 | 1640 | 770 | 85.1 | 85.5 | 102 | 99 | 94.3 | 75.3 | 28.5 | 48.3 | 33.7 | 93.2 | 61.7 | -45.4 | 3.8 | -5.72 | > 10000 | growth, % of control at 0.1 µM (PC-3 [22]): 94.9%; growth, % of control at 0.3 µM (MDA-MB-231 [23]): 88.8%; growth, % of control at 3 µM (PC-3 [24]): -27.7%; growth, % of control at 0.1 µM (NUGC-3 [25]): 92.3%; growth, % of control at 10 µM (MDA-MB-231 [26]): 25%; growth, % of control at 10 µM (NCI-H23 [27]): -40%; growth, % of control at 0.3 µM (HCT-15 [28]): 99.8%; growth, % of control at 1 µM (MDA-MB-231 [29]): 80.8%; growth, % of control at 1 µM (NUGC-3 [30]): 65.2%; growth, % of control at 0.3 µM (ACHN [31]): 93.5%; growth, % of control at 3 µM (NCI-H23 [32]): 29.4%; growth, % of control at 0.3 µM (NCI-H23 [33]): 93.7%; growth, % of control at 0.3 µM (NUGC-3 [34]): 89.9%; growth, % of control at 0.3 µM (PC-3 [35]): 91%; growth, % of control at 3 µM (ACHN [36]): 60.4%; growth, % of control at 0.1 µM (NCI-H23 [37]): 92.8%
CCCCCCCCCCCCCCCC(=O)N(C)CC[N+](CC)(CC)CC | 1110 | 270 | 230 | 360 | 160 | 16.7 | 24.6 | 89.1 | 56.7 | 94.3 | 72.7 | -43.8 | 12.6 | 12.6 | 106 | 3.4 | -24.2 | -42.5 | -50 | 610 | growth, % of control at 0.1 µM (PC-3 [22]): 87.4%; growth, % of control at 0.3 µM (MDA-MB-231 [23]): 80.4%; growth, % of control at 3 µM (PC-3 [24]): -5.6%; growth, % of control at 0.1 µM (NUGC-3 [25]): 99.2%; growth, % of control at 10 µM (MDA-MB-231 [26]): -17.3%; growth, % of control at 10 µM (NCI-H23 [27]): 8.5%; growth, % of control at 0.3 µM (HCT-15 [28]): 83.5%; growth, % of control at 1 µM (MDA-MB-231 [29]): 33.1%; growth, % of control at 1 µM (NUGC-3 [30]): -14.6%; growth, % of control at 0.3 µM (ACHN [31]): 78.5%; growth, % of control at 3 µM (NCI-H23 [32]): 45.2%; growth, % of control at 0.3 µM (NCI-H23 [33]): 84.9%; growth, % of control at 0.3 µM (NUGC-3 [34]): 53.4%; growth, % of control at 0.3 µM (PC-3 [35]): 71.9%; growth, % of control at 3 µM (ACHN [36]): -15.6%; growth, % of control at 0.1 µM (NCI-H23 [37]): 84%
